According to US8080544B2, “Prodrugs of CGRP receptor antagonists” (Merck Sharp & Dohme Corp., priority 2008, dated 2011):
In brackets after ≈: the same amount, converted by molar mass.

Experiments:
[1] = Aqueous solubility; type: physicochemical; settings: for solubility: aqueous solution
Description: The compounds of the present invention may have improved aqueous solubility compared with telcagepant.

[2] = In vivo conversion to telcagepant after IV dosing, rat (plasma AUC by LC/MS); settings: 3.53 umol/kg, IV dose 3.53 μmol/kg, DMSO vehicle, plasma AUC of Compound 1 (telcagepant)
Description: The compounds of the present invention may be efficiently converted to give parent telcagepant in vivo. For illustrative purposes, data for the in vivo conversion of Example 1 to telcagepant in preclinical species are shown in Table 2.

Row | solubility ([1]; aqueous buffer, pH 4.0) | solubility ([1]; aqueous buffer, pH 9.0) | solubility ([1]; aqueous buffer, pH 2.0) | solubility ([1]; pH 7.3, aqueous buffer) | aqueous solubility (in words) ([1]; general statement, no pH given) | AUC [2] | SMILES
1 | > 150000 µg/mL | > 150000 µg/mL | – | – | – | – | O=C(N[C@@H]1CC[C@@H](c2cccc(F)c2F)CN(CC(F)(F)F)C1=O)N1CCC(n2c(=O)n(COP(=O)([O-])O)c3ncccc32)CC1.[Na+] [Example 1, {1-[1-({[(3R,6S)-6-(2,3-Difluorophenyl)-2-oxo-1-(2,2,2-trifluoroethyl)azepan-3-yl]amino}carbonyl)piperidin-4-yl]-2-oxo-1,2-dihydro-3H-imidazo[4,5-b]pyridin-3-yl}methyl hydrogen sodium phosphate]
2 | – | – | 77 µg/mL (≈ 136 µM) | 31 µg/mL (≈ 54.7 µM) | low aqueous solubility | 6.46 µM·h | O=C(N[C@@H]1CC[C@@H](c2cccc(F)c2F)CN(CC(F)(F)F)C1=O)N1CCC(n2c(=O)[nH]c3ncccc32)CC1 [Telcagepant, N-[(3R,6S)-6-(2,3-difluorophenyl)-2-oxo-1-(2,2,2-trifluoroethyl)azepan-3-yl]-4-(2-oxo-2,3-dihydro-1H-imidazo[4,5-b]pyridine-1-yl)piperidin-1-carboxamide]
